Measured values published in patent US8808743B2, “Benzonatate compositions and methods of use” (priority 2010, dated 2014).

Assay: Simulated gastrointestinal dissolution testing (FloVitro apparatus, USP simulated gastric and intestinal fluids)
Type: physicochemical
Conditions: 100 mg dose
Method: The dissolution test used procedures devised by DOW Chemical using their proprietary FloVitro™ dissolution apparatus described in U.S. Pat. No. 6,799,123B2 and in the publication titled “FloVitro™ Technology” published online at:
The system used two different media that were combined during the process. The fluid flow rates were:
Simulated gastric fluid=7.7 ml/min
Simulated intestinal fluid=13.1 ml/mi
Total flow through analyzer=20.8 ml/min
To Cell 1: USP simulated gastric fluid (no pepsin)
To Cell 2: USP simulated intestinal fluid (pH 6.8) (SIF)
The samples tested were: • a) 100 mg dose neat benzonatate • b) 220.48 mg of IRP69H resinate: 87.97 mg benzonatate dose • c) 225.15 mg of IRP64H resinate: 102.21 mg benzonatate dose a) 100 mg Neat Benzonatate

Compound: CCCCNc1ccc(C(=O)OCCOCCOCCOCCOCCOCCOCCOCCOCCOC)cc1 [BENZ, benzonatate]
- Concentration of Homolog in Effluent Total (0 min): 0.00 mg/L
- Concentration of Homolog in Effluent n = 3 (0 min): 0.00 mg/L
- Concentration of Homolog in Effluent n = 4 (0 min): 0.00 mg/L
- Concentration of Homolog in Effluent n = 5 (0 min): 0.00 mg/L
- Concentration of Homolog in Effluent n = 6 (0 min): 0.00 mg/L
- Concentration of Homolog in Effluent n = 7 (0 min): 0.00 mg/L
- Concentration of Homolog in Effluent n = 8 (0 min): 0.00 mg/L
- Concentration of Homolog in Effluent n = 9 (0 min): 0.00 mg/L
- Concentration of Homolog in Effluent n = 10 (0 min): 0.00 mg/L
- Concentration of Homolog in Effluent n = 11 (0 min): 0.00 mg/L
- Concentration of Homolog in Effluent n = 12 (0 min): 0.00 mg/L
- Concentration of Homolog in Effluent n = 13 (0 min): 0.00 mg/L
- Concentration of Homolog in Effluent n = 14 (0 min): 0.00 mg/L
- Concentration of Homolog in Effluent n = 15 (0 min): 0.00 mg/L
- Concentration of Homolog in Effluent n = 16 (0 min): 0.00 mg/L
- Concentration of Homolog in Effluent n = 17 (0 min): 0.00 mg/L
- Concentration of Homolog in Effluent Total (10 min): 13.84 mg/L
- Concentration of Homolog in Effluent n = 3 (10 min): 0.04 mg/L
- Concentration of Homolog in Effluent n = 4 (10 min): 0.14 mg/L
- Concentration of Homolog in Effluent n = 5 (10 min): 0.41 mg/L
- Concentration of Homolog in Effluent n = 6 (10 min): 0.85 mg/L
- Concentration of Homolog in Effluent n = 7 (10 min): 1.42 mg/L
- Concentration of Homolog in Effluent n = 8 (10 min): 1.92 mg/L
- Concentration of Homolog in Effluent n = 9 (10 min): 2.14 mg/L
- Concentration of Homolog in Effluent n = 10 (10 min): 2.06 mg/L
- Concentration of Homolog in Effluent n = 11 (10 min): 1.80 mg/L
- Concentration of Homolog in Effluent n = 12 (10 min): 1.26 mg/L
- Concentration of Homolog in Effluent n = 13 (10 min): 0.84 mg/L
- Concentration of Homolog in Effluent n = 14 (10 min): 0.49 mg/L
- Concentration of Homolog in Effluent n = 15 (10 min): 0.27 mg/L
- Concentration of Homolog in Effluent n = 16 (10 min): 0.12 mg/L
- Concentration of Homolog in Effluent n = 17 (10 min): 0.08 mg/L
- Cumul. (cumulative release in effluent) (10 min): 1.44 mg
- Concentration of Homolog in Effluent Total (20 min): 28.13 mg/L
- Concentration of Homolog in Effluent n = 3 (20 min): 0.07 mg/L
- Concentration of Homolog in Effluent n = 4 (20 min): 0.28 mg/L
- Concentration of Homolog in Effluent n = 5 (20 min): 0.78 mg/L
- Concentration of Homolog in Effluent n = 6 (20 min): 1.73 mg/L
- Concentration of Homolog in Effluent n = 7 (20 min): 2.91 mg/L
- Concentration of Homolog in Effluent n = 8 (20 min): 3.90 mg/L
- Concentration of Homolog in Effluent n = 9 (20 min): 4.38 mg/L
- Concentration of Homolog in Effluent n = 10 (20 min): 4.18 mg/L
- Concentration of Homolog in Effluent n = 11 (20 min): 3.58 mg/L
- Concentration of Homolog in Effluent n = 12 (20 min): 2.65 mg/L
- Concentration of Homolog in Effluent n = 13 (20 min): 1.73 mg/L
- Concentration of Homolog in Effluent n = 14 (20 min): 1.03 mg/L
- Concentration of Homolog in Effluent n = 15 (20 min): 0.55 mg/L
- Concentration of Homolog in Effluent n = 16 (20 min): 0.25 mg/L
- Concentration of Homolog in Effluent n = 17 (20 min): 0.08 mg/L
- Cumul. (cumulative release in effluent) (20 min): 8.00 mg
- Concentration of Homolog in Effluent Total (30 min): 34.97 mg/L
- Concentration of Homolog in Effluent n = 3 (30 min): 0.08 mg/L
- Concentration of Homolog in Effluent n = 4 (30 min): 0.35 mg/L
- Concentration of Homolog in Effluent n = 5 (30 min): 0.98 mg/L
- Concentration of Homolog in Effluent n = 6 (30 min): 2.10 mg/L
- Concentration of Homolog in Effluent n = 7 (30 min): 3.61 mg/L
- Concentration of Homolog in Effluent n = 8 (30 min): 4.89 mg/L
- Concentration of Homolog in Effluent n = 9 (30 min): 5.47 mg/L
- Concentration of Homolog in Effluent n = 10 (30 min): 5.28 mg/L
- Concentration of Homolog in Effluent n = 11 (30 min): 4.52 mg/L
- Concentration of Homolog in Effluent n = 12 (30 min): 3.29 mg/L
- Concentration of Homolog in Effluent n = 13 (30 min): 2.13 mg/L
- Concentration of Homolog in Effluent n = 14 (30 min): 1.27 mg/L
- Concentration of Homolog in Effluent n = 15 (30 min): 0.63 mg/L
- Concentration of Homolog in Effluent n = 16 (30 min): 0.28 mg/L
- Concentration of Homolog in Effluent n = 17 (30 min): 0.09 mg/L
- Cumul. (cumulative release in effluent) (30 min): 15.52 mg
- Concentration of Homolog in Effluent Total (40 min): 37.37 mg/L
- Concentration of Homolog in Effluent n = 3 (40 min): 0.09 mg/L
- Concentration of Homolog in Effluent n = 4 (40 min): 0.40 mg/L
- Concentration of Homolog in Effluent n = 5 (40 min): 1.10 mg/L
- Concentration of Homolog in Effluent n = 6 (40 min): 2.27 mg/L
- Concentration of Homolog in Effluent n = 7 (40 min): 3.86 mg/L
- Concentration of Homolog in Effluent n = 8 (40 min): 5.23 mg/L
- Concentration of Homolog in Effluent n = 9 (40 min): 5.81 mg/L
- Concentration of Homolog in Effluent n = 10 (40 min): 5.66 mg/L
- Concentration of Homolog in Effluent n = 11 (40 min): 4.80 mg/L
- Concentration of Homolog in Effluent n = 12 (40 min): 3.47 mg/L
- Concentration of Homolog in Effluent n = 13 (40 min): 2.31 mg/L
- Concentration of Homolog in Effluent n = 14 (40 min): 1.35 mg/L
- Concentration of Homolog in Effluent n = 15 (40 min): 0.67 mg/L
- Concentration of Homolog in Effluent n = 16 (40 min): 0.25 mg/L
- Concentration of Homolog in Effluent n = 17 (40 min): 0.10 mg/L
- Cumul. (cumulative release in effluent) (40 min): 23.20 mg
- Concentration of Homolog in Effluent Total (50 min): 36.42 mg/L
- Concentration of Homolog in Effluent n = 3 (50 min): 0.11 mg/L
- Concentration of Homolog in Effluent n = 4 (50 min): 0.40 mg/L
- Concentration of Homolog in Effluent n = 5 (50 min): 1.05 mg/L
- Concentration of Homolog in Effluent n = 6 (50 min): 2.18 mg/L
- Concentration of Homolog in Effluent n = 7 (50 min): 3.76 mg/L
- Concentration of Homolog in Effluent n = 8 (50 min): 5.07 mg/L
- Concentration of Homolog in Effluent n = 9 (50 min): 5.67 mg/L
- Concentration of Homolog in Effluent n = 10 (50 min): 5.51 mg/L
- Concentration of Homolog in Effluent n = 11 (50 min): 4.71 mg/L
- Concentration of Homolog in Effluent n = 12 (50 min): 3.42 mg/L
- Concentration of Homolog in Effluent n = 13 (50 min): 2.23 mg/L
- Concentration of Homolog in Effluent n = 14 (50 min): 1.28 mg/L
- Concentration of Homolog in Effluent n = 15 (50 min): 0.67 mg/L
- Concentration of Homolog in Effluent n = 16 (50 min): 0.27 mg/L
- Concentration of Homolog in Effluent n = 17 (50 min): 0.09 mg/L
- Cumul. (cumulative release in effluent) (50 min): 30.53 mg
- Concentration of Homolog in Effluent Total (60 min): 34.04 mg/L
- Concentration of Homolog in Effluent n = 3 (60 min): 0.07 mg/L
- Concentration of Homolog in Effluent n = 4 (60 min): 0.37 mg/L
- Concentration of Homolog in Effluent n = 5 (60 min): 0.99 mg/L
- Concentration of Homolog in Effluent n = 6 (60 min): 2.07 mg/L
- Concentration of Homolog in Effluent n = 7 (60 min): 3.55 mg/L
- Concentration of Homolog in Effluent n = 8 (60 min): 4.76 mg/L
- Concentration of Homolog in Effluent n = 9 (60 min): 5.36 mg/L
- Concentration of Homolog in Effluent n = 10 (60 min): 5.13 mg/L
- Concentration of Homolog in Effluent n = 11 (60 min): 4.41 mg/L
- Concentration of Homolog in Effluent n = 12 (60 min): 3.17 mg/L
- Concentration of Homolog in Effluent n = 13 (60 min): 2.09 mg/L
- Concentration of Homolog in Effluent n = 14 (60 min): 1.25 mg/L
- Concentration of Homolog in Effluent n = 15 (60 min): 0.56 mg/L
- Concentration of Homolog in Effluent n = 16 (60 min): 0.26 mg/L
- Concentration of Homolog in Effluent n = 17 (60 min): 0.00 mg/L
- Cumul. (cumulative release in effluent) (60 min): 63.41 mg
